ChEMBL document CHEMBL1201862, “PubChem BioAssay data set” (2004)
Active and inactive are the calls of the source.

Tests used:
H4 = experiment: Luminescence Cell-Based Dose Response HTS to Identify Activators of 5'UTR Stem-Loop Driven Prion Protein mRNA Translation in H4 Neuroglioblastoma Cells. [Related pubchem assays: 1829 (Project Summary), 1814 (Primary HTS)]; format: functional; details: Homo sapiens
Nonstructural protein 1 = Nonstructural protein 1 (Influenza A virus, UniProt Q194T2); format: functional, Influenza A virus (A/California/07/2009(H1N1))
Nonstructural protein 1, sequence (Q194T2 whole entry): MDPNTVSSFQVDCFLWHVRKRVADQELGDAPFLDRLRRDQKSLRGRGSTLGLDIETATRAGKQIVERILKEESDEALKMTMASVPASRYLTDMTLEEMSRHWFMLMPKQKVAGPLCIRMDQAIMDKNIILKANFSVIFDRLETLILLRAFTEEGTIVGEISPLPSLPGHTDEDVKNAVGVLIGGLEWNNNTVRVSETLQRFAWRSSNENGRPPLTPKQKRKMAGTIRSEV

[1] = Luminescence Cell-Based Dose Response HTS to Identify Activators of Luciferase Translation or Activity in H4 […] Cells. [Related pubchem assays: 1829 (Project Summary), 1814 (Primary HTS)]; format: functional
[2] = Luminescence Cell-Based Dose Confirmation HTS to Identify Activators of 5'UTR Stem-Loop Driven Alpha-Synuclein mRNA Translation in H4 Neuroglioblastoma Cells. [Related pubchem assays: 1829 (Project Summary), 1814 (Primary HTS)]; format: functional
Coagulation factor XII = biological target: T1, Coagulation factor XII (Homo sapiens, UniProt P00748); format: functional;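 also: activated factor XIIa alpha cleaving a fluorogenic AMC peptide substrate; inhibitor potency from loss of enzyme activity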
T1 sequence (P00748 whole entry): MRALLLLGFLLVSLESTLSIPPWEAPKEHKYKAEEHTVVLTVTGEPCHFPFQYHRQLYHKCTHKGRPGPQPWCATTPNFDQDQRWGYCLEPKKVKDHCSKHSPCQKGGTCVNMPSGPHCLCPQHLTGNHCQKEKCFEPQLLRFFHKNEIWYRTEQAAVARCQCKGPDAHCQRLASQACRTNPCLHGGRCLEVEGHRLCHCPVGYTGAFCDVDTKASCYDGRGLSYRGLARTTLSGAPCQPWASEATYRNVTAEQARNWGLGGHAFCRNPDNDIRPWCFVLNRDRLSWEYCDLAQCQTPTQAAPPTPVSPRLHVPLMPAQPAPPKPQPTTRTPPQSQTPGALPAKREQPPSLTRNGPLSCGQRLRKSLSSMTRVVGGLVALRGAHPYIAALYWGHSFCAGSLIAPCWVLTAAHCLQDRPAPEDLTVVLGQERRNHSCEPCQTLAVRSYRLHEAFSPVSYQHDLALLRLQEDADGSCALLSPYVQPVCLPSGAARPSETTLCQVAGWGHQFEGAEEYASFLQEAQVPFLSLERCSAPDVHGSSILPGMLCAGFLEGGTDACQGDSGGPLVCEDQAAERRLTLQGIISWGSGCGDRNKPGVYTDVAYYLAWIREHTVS

[3] = biological target: T2, Short transient receptor potential channel 4 (Mus musculus, UniProt Q9QUQ5); experiment: mouse TRPC4 channel activators, dose response, cell-based, HEK293 TRPC4/mu-opioid, Fluo-4 calcium (AID 434937); format: functional
T2 sequence (Q9QUQ5 whole entry): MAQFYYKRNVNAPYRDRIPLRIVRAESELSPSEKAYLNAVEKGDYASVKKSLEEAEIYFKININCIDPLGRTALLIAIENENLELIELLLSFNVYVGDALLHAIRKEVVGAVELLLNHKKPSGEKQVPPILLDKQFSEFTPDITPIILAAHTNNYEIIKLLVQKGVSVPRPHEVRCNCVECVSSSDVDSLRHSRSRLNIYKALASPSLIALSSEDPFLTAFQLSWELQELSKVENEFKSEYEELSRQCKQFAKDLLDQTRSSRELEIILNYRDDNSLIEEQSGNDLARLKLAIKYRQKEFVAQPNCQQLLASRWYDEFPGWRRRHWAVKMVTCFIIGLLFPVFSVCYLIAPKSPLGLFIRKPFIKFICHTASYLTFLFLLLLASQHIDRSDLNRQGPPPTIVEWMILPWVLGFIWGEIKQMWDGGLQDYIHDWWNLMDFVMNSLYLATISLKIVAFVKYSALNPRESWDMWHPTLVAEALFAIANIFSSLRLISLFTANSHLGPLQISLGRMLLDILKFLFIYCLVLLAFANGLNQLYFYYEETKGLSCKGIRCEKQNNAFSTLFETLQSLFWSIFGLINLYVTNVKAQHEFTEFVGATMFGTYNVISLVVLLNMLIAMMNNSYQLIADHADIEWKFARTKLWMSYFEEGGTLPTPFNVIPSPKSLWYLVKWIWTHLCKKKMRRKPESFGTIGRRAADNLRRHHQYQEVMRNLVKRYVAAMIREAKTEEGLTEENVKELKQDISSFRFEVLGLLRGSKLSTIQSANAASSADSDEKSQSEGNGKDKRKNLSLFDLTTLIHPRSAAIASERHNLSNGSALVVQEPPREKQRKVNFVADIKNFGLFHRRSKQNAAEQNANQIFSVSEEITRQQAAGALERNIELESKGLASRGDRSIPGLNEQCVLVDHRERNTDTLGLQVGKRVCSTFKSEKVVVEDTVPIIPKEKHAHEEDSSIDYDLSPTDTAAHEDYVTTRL

[4] = biological target: T3, Corticotropin-releasing factor receptor 2/Corticotropin-releasing factor-binding protein (Homo sapiens, UniProt P24387+Q13324); experiment: activators of CRF receptor 2 with binding protein – uHTS hits, confirmation (AID 602473); format: functional; details: read-out: EC50_Mean
T3 sequence (Q13324 whole entry): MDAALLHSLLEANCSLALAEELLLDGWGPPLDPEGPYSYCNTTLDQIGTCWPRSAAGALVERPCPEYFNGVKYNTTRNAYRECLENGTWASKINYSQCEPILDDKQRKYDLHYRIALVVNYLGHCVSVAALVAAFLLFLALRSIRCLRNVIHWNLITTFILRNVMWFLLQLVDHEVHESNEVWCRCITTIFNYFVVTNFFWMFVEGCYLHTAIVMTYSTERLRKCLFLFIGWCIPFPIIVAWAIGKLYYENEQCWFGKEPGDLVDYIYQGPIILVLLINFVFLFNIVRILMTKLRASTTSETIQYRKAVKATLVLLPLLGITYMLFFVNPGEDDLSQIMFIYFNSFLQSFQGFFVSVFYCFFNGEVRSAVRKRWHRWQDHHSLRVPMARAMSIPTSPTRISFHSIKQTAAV
T3 sequence (P24387 whole entry): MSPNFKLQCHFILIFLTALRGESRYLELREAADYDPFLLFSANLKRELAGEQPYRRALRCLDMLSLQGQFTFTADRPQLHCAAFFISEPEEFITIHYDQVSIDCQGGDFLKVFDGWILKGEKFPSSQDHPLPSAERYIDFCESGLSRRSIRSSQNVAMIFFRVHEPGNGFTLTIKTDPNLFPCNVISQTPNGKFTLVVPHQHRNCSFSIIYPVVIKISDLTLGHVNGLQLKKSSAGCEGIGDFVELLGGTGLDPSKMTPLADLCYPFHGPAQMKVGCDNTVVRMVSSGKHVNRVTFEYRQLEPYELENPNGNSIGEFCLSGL

HeLa = experiment: HeLa cell cytotoxicity, dose response, cytotoxicity control for MITF activator project, CellTiter-Glo luminescence, cherry-pick samples (AID 540259); format: functional, cell-based; details: Homo sapiens
[5] = biological target: T4, Carboxy-terminal domain RNA polymerase II polypeptide A small phosphatase 1 (Homo sapiens, UniProt Q9GZU7); experiment: inhibitors of CTDSP1, concentration-response testing, biochemical assay, absorbance-based, actives from ultra-high-throughput screening (AID 540297); format: functional
T4 sequence (Q9GZU7 whole entry): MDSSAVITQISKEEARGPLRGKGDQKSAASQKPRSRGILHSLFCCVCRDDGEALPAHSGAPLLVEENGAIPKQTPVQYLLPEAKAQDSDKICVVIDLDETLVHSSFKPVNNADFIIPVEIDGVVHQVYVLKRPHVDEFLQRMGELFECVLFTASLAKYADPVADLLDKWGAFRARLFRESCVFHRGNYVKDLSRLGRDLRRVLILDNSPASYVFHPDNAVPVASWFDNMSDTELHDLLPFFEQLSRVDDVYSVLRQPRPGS

[6] = biological target: Glucose-6-phosphate 1-dehydrogenase (Homo sapiens, UniProt P11413); experiment: human G6PD enzyme inhibitors, dose response, selectivity assay for P. falciparum G6PD inhibitor project, biochemical, fluorescence (AID 504792); format: functional
Glucose-6-phosphate 1-dehydrogenase, sequence (P11413 whole entry): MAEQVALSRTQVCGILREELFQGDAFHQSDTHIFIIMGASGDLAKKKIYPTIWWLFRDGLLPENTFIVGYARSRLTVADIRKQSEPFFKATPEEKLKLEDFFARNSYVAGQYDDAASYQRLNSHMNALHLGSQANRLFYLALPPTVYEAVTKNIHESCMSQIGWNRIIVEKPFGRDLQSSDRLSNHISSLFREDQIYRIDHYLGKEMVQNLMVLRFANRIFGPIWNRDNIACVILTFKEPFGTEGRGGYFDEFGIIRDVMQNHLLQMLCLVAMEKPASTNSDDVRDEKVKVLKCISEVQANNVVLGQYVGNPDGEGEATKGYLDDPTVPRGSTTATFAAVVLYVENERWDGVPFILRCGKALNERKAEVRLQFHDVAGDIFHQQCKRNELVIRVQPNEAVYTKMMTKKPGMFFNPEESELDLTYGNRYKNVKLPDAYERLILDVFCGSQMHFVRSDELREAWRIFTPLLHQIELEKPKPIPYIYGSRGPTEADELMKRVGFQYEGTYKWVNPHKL

C[n+]1c(/C=C/c2ccc(O)cc2)ccc2ccccc21
EC50 (H4): 7.6 µM (active) | IC50 (Nonstructural protein 1): > 100 µM (active) | EC50 [1]: 5.65 µM (active) | EC50 [2]: 12.5 µM (active)

O=C(COC(=O)c1ccccc1Br)Nc1ccc(F)cc1
IC50 (Coagulation factor XII): > 50 µM (inactive)

Cc1nc2ccccn2c1P(=S)(N1CCCCC1)N1CCCCC1
EC50 [3]: 5.96 µM (active) | EC50 [4]: 23.7 µM (active)

COc1ccc(CN(C(=O)c2snc(C(N)=O)c2N)C(C(=O)NC(C)(C)C)c2ccco2)cc1 (configuration not stated)
IC50 (Coagulation factor XII): > 50 µM (inactive)

CCCN(CCC)c1ncnc2c1cnn2-c1ccc(OC)cc1
AC50 (HeLa): 46.3 µM (active)

CC(C1CC2CCC1C2)N1CC(=O)C(c2nc3ccccc3[nH]2)=C1N (configuration not stated)
IC50 (Coagulation factor XII): > 50 µM (inactive)

Cc1cc(N=NC(=O)c2ccccc2O)c2ccccc2c1O
IC50 [5]: 5.15 µM (active) | IC50 [6]: > 80 µM (inactive)
